Experiment [1] has as its system E. coli CFT073 biofilm. Description: Susceptibility of 24 h biofilm on CBD to antibiotics with or without V9T14 (MBEC, viable cell count, CLSM). The conditions noted are these: for MBEC99.9%, Ab: 3 log10 reduction; for MBEC99.9%, AbBs: antibiotic plus 5 μg/mL V9T14 biosurfactant. It is filed as cell-based, Escherichia coli. How it is done: (§1) Antibiotics were serially diluted (log2) using 0.9% saline in a 96-well microtiter plate, and then a solution of biosurfactant was added to each well to reach a final concentration of 5 μg/mL.
(§2) E. coli CFT073 biofilms were grown on the CBD at 37° C. for 24 h in a rotatory shaker at 130 rpm, as described above. Then CBD lid was rinsed twice with 0.9% saline, exposed to the antibiotics and antibiotic plus biosurfactant microtiter plate and incubated at 37° C., 125 rpm for 24 h. After exposure, the CBD was removed and the 96-well microtiter plate was used to estimate minimal inhibitory concentration (MIC) and minimal bactericidal concentration (MBC99.99%) values. For MIC value, the plate was read using a spectrophotometer at 650 nm, MIC was defined as the lowest concentration not presenting turbidity; according to the guidelines of the American Clinical Laboratory Standards Institute, the minimum bactericidal concentration (MBC) is conventionally defined as a concentration of an antimicrobial agent that kills 3 log10 cells of a bacterial culture (or 99.9% of the bacteria). In our experiments we used a more restrictive criterion, defining the MBC99.99% value, defined as the lowest concentration of the antibiotic activity higher than 4 log10 by viable cell count. Minimal biofilm eradication concentration (MBEC99.9%) was defined as the lowest concentration to eradicate 3 log10 of the viable microorganisms in a biofilm.
Pegs were broken from the lid of the CBD using pliers (Harrison et al. 2006) and then rinsed once with 0.9% saline to remove planktonic forms. Prior to examination by CLSM, biofilms were fluorescently stained with acridine orange (AO) (Sigma Chemical Co., St. Louis, Mo., USA). To stain biofilms, pegs were immersed in 0.1% w/v AO in PBS for 5 min at room temperature in the dark. To determine live and dead cell distribution in antibiotic experiments, rinsed biofilms were stained with Syto-9 (6.7 μM) and propidium iodide (40 μM) (Live/Dead® BacLight™ Kit, Molecular Probes, Burlington, ON, Canada) at 30° C. for 30 min. Fluorescently stained biofilms were placed in two drops of 0.9% saline on the surface of a glass coverslip. These pegs were examined using a Leica DM IRE2 spectral confocal and multiphoton microscope with a Leica TCS SP2 acoustic optical beam splitter (AOBS) (Leica Microsystems, Richmond Hill, ON, Canada). To minimize or eliminate artefacts associated with single and/or simultaneous dual wavelength excitation, all dual labelled samples were sequentially scanned, frame-by frame, first at 476 or 488 nm and then at 543 nm. Fluorescence emission Δ was then sequentially collected in the green and red regions of the spectrum, respectively. Line averaging (×2) was used to capture images with reduced noise. A 63× water immersion objective was used in all imaging experiments. Image capture and two dimensional projections of z-stacks were performed using Leica Confocal Software (LCS, Leica Microsystems).
(§3) The difference attributed to synergy is expressed in Δ values between the log10 antibiotic cell count reduction and the log10 association value. “Eradication” was defined as no growth in antibiotic-free plates after planktonic culture initially incubated in antibiotic-containing LB broth.

Experiment [2] concerns planktonic E. coli CFT073. Description: Susceptibility of planktonic cultures to antibiotics with or without V9T14 (MIC by OD650, MBC by viable cell count). It is filed as cell-based, Escherichia coli. The following applies: for change of MBC99.99% by V9T14 / effect of V9T14 on planktonic killing: 5 μg/mL V9T14; for MIC / MBC: Escherichia coli; for MBC: read-out: MBC99.99%, Ab; for MBC99.99%, AbBs: antibiotic plus 5 μg/mL V9T14 biosurfactant; for concentration at which complete eradication of planktonic cells was observed: antibiotic plus 5 μg/mL V9T14; for increase of planktonic killing by V9T14: at 2 μg/mL antibiotic. As to the method:
as §1, §2, §3

Where [3] appears, read: 24 h, antibiotic alone, 24 h, OD650, read-out: MIC, Ab.
Where [4] appears, read: antibiotic without V9T14 (figure legend), read-out: MIC value used in FIG. 21.
Setting [5] is: antibiotic alone, 24 h, 4 log10 reduction.

Read-outs that look alike come from different tables or passages of the source.

The MIC is the smallest concentration in the dilution series that meets the test's criterion for growth inhibition.

For `CCN1CCN(C(=O)N[C@@H](C(=O)N[C@@H]2C(=O)N3[C@@H]2SC(C)(C)[C@@H]3C(=O)O)c2ccccc2)C(=O)C1=O` [Piperacillin, piperacillin], in experiment [1] (5 μg/mL V9T14), the “change of MBEC99.9% by V9T14” value is given as “not affected” and the “effect of V9T14 on biofilm killing” value is recorded as “no improvement”. In experiment [1] (24 h exposure), the “synergy with V9T14 (criterion ≧1 log10 decrease)” value was “not able to satisfy our discrimination criterion for synergy identification”. In addition, the biofilm reduction in experiment [1] (antibiotic alone at 4 μg/mL) turned out to be 1 log10. Also, in experiment [1] (antibiotic alone, 24 h), the “MBEC99.9%, Ab” value was more than 32 µg/mL. In experiment [1] (24 h), the “MBEC99.9%, AbBs” value was more than 32 µg/mL. In experiment [2], the “change of MBC99.99% by V9T14” value is listed as “not affected” and the “effect of V9T14 on planktonic killing” value is “no improvement”. Also, in experiment [2] (setting [3]), the MIC is more than 32 mg/L. In addition, the MIC in experiment [2] (setting [4]) came out at 32 mg/L. For the same molecule, the MBC in experiment [2] (setting [5]) is more than 32 mg/L. Besides, the planktonic population reduction in experiment [2] (antibiotic alone at 4 μg/mL) was found to be 2.7 log10. The “MBC99.99%, AbBs” value in experiment [2] (24 h) is more than 32 mg/L.
On to `CO/N=C(\C(=O)N[C@@H]1C(=O)N2C(C(=O)O)=C(CSc3nc(=O)c(O)nn3C)CS[C@H]12)c1csc(N)n1` [Cefriaxone, ceftriaxone], for which the “final enhancement of biofilm removal by V9T14” value in experiment [1] (2 μg/mL antibiotic) is on record as 1.2 log10. In addition, in experiment [1] (0.25-0.5 μg/mL antibiotic), the “enhancement of biofilm removal by V9T14” value is 0.6 log10. For the same molecule, the biofilm reduction in experiment [1] (antibiotic alone at 1 μg/mL) stood at 3 log10. In experiment [1] (antibiotic alone, 24 h), the “MBEC99.9%, Ab” value was in the range of 1 to 2 µg/mL. Besides, the “MBEC99.9%, AbBs” value in experiment [1] (24 h) was in the range of 0.5 to 1 µg/mL. Also, in experiment [1] (for 2 μg/mL antibiotic, on top of the 0.25-0.5 μg/mL increase), the “further increase of biofilm removal by V9T14” value was 0.6 log10. In addition, in experiment [2], the “change of MBC99.99% by V9T14” value is recorded as “not modified”, the “concentration at which complete eradication of planktonic cells was observed” value (shortened to “concentration … of planktonic cells was observed”) worked out at 2 µg/mL and the “increase of planktonic killing by V9T14” value is recorded as 1.7 log10. Besides, the planktonic population reduction in experiment [2] (antibiotic alone at 0.5 μg/mL) is given as 3 log10. The planktonic population reduction in experiment [2] (antibiotic alone at 1 μg/mL) came out at 7 log10. The “MBC99.99%, Ab” value in experiment [2] (setting [5]) is 0.5 to 1 mg/L. The “MIC, Ab” value in experiment [2] (antibiotic alone, 24 h, OD650) was in the range of 1 to 2 mg/L. Moreover, the “MBC99.99%, AbBs” value in experiment [2] (24 h) lay in the range of 0.5 to 1 mg/L. Moreover, the “MIC value used in FIG. 21” value in experiment [2] (antibiotic without V9T14 (figure legend)) is 1 mg/L.
For the molecule `CC1(C)S[C@@H]2[C@H](NC(=O)[C@H](N)c3ccccc3)C(=O)N2[C@H]1C(=O)O` [Ampicillin, ampicillin], in experiment [1] (1 μg/mL antibiotic plus V9T14), the surviving biofilm population is 10^1 cfu/peg. Also, the biofilm reduction in experiment [1] (antibiotic alone at 4 μg/mL) is 3 log10. In experiment [1] (antibiotic alone, 24 h), the “biofilm subpopulation remaining viable” value is 10^3 cfu/peg and the “MBEC99.9%, Ab” value turned out to be 4 µg/mL. Besides, the “MBEC99.9%, AbBs” value in experiment [1] (24 h) lay in the range of 0.5 to 1 µg/mL. In experiment [1] (antibiotic plus V9T14), the “concentration at which sessile forms were eradicated” value is 8 µg/mL. The “effect on adherent biofilm cells” value in experiment [1] (association of V9T14 with the antibiotic) was “complete eradication”. Besides, the “enhancement of antibiotic effect on biofilm by V9T14” value in experiment [1] (at 1 μg/mL antibiotic) was 4 log10. In experiment [2], the “change of MBC99.99% by V9T14” value is on record as “not modified” and the “concentration … of planktonic cells was observed” value was 8 µg/mL. Moreover, in experiment [2] (setting [3]), the MIC was 2 to 4 mg/L. For the same molecule, the MIC in experiment [2] (setting [4]) stood at 2 mg/L. In addition, in experiment [2] (setting [5]), the MBC was in the range of 1 to 2 mg/L. Also, the surviving planktonic population in experiment [2] (antibiotic alone up to 16 μg/mL) was 10^2 cfu/mL. The “MBC99.99%, AbBs” value in experiment [2] (24 h) lay within 1 to 2 mg/L. Besides, in experiment [2] (concentration not given), the “increase of planktonic killing efficacy by V9T14” value came to 2 log10.
Take `NC[C@H]1O[C@H](O[C@H]2[C@H](O)[C@@H](O[C@H]3O[C@H](CO)[C@@H](O)[C@H](N)[C@H]3O)[C@H](N)C[C@@H]2N)[C@H](N)C[C@@H]1O` [Tobramycin, tobramycin]: the “change of MBEC99.9% by V9T14” value in experiment [1] (5 μg/mL V9T14) is “not modified”. Besides, the “increased efficacy against sessile forms by V9T14” value in experiment [1] (16 μg/mL antibiotic) is recorded as 1 log10. Further, the “effect on mature biofilm by CLSM (Live/Dead)” value in experiment [1] (16 μg/mL antibiotic alone) was “significant killing of biofilm population”. Also, the “mature biofilm reduction by CLSM (Live/Dead)” value in experiment [1] (16 μg/mL antibiotic plus 5 μg/mL V9T14) is given as “further increased”. In addition, in experiment [1] (antibiotic alone at 8-16 μg/mL), the biofilm survival subpopulation entry is reported as “about 10^2 cfu/mL”. In addition, in experiment [1] (antibiotic alone, 24 h), the “MBEC99.9%, Ab” value lay in the range of 2 to 4 µg/mL. In addition, the biofilm decrease in experiment [1] (antibiotic alone, stabilizing at 8-16 μg/mL) was 4 log10. Also, in experiment [1] (24 h), the “MBEC99.9%, AbBs” value was 2 to 4 µg/mL. Moreover, the “planktonic growth, OD650” value was 0.31 in experiment [2] (4 μg/mL antibiotic alone) and 0.18 in experiment [2] (4 μg/mL antibiotic plus 5 μg/mL V9T14). The “change of MBC99.99% by V9T14” value in experiment [2] was “not modified”. Further, the “effect of V9T14 on planktonic killing” value in experiment [2] is given as “no increase of activity”. The figures for the MIC in experiment [2] (setting [3]) and in experiment [2] (setting [4]) were 16 to 32 mg/L and 16 mg/L, respectively. Moreover, the MBC in experiment [2] (setting [5]) lay in the range of 8 to 16 mg/L. The “concentration giving complete eradication of planktonic population” value in experiment [2] (antibiotic alone) was 16 µg/mL. For the same molecule, the planktonic population reduction in experiment [2] (antibiotic alone up to 8 μg/mL) is 1 log10. Besides, the “MBC99.99%, AbBs” value in experiment [2] (24 h) fell in the range of 8 to 16 mg/L.
On to `Cc1nnc(SCC2=C(C(=O)O)N3C(=O)[C@@H](NC(=O)Cn4cnnn4)[C@H]3SC2)s1` [Cefazolin, cefazolin], for which the biofilm reduction entry in experiment [1] (antibiotic alone, up to highest concentration tested) was “about 2.2 log10”. Moreover, the “MBEC99.9%, AbBs” value in experiment [1] (24 h) stood at 8 µg/mL. The “maximum planktonic killing effect” value in experiment [2] (32 μg/mL antibiotic plus V9T14) is 8.4 log10; in experiment [2] (antibiotic alone at 32 μg/mL), 6.9 log10. Further, the MIC in experiment [2] (24 h, antibiotic plus 5 μg/mL V9T14, 24 h, OD650, read-out: MIC with V9T14) came to 8 mg/L; in experiment [2] (setting [4]), 8 mg/L. For the same molecule, the MBC in experiment [2] (setting [5]) was found to be 16 mg/L. In experiment [2] (antibiotic alone at 16 μg/mL), the planktonic killing result is “more than 4 log10 cfu/mL”. Further, the “MIC, Ab” value is 1 to 2 mg/L in experiment [2] (antibiotic alone, 24 h, OD650) and 16 mg/L in experiment [2] (antibiotic alone, 24 h, OD650, listed as cefazolin). For the same molecule, the “concentration … of planktonic cells was observed” value in experiment [2] was 32 µg/mL. Further, in experiment [2] (24 h), the “MBC99.99%, AbBs” value is 8 mg/L.
Turning to `O=C(O)c1cn(C2CC2)c2cc(N3CCNCC3)c(F)cc2c1=O` [Ciprofloxacin, ciprofloxacin], in experiment [2], the “change of MBC99.99% by V9T14” value is listed as “not modified” and the “increase of planktonic killing by V9T14” value is reported as 1.4 log10. The MIC in experiment [2] (setting [3]) fell in the range of 8 to 16 mg/L. The MBC in experiment [2] (setting [5]) was in the range of 0.25 to 0.5 mg/L. Moreover, the planktonic population reduction in experiment [2] (antibiotic alone at 1 μg/mL) is 6.8 log10. Moreover, the “MBC99.99%, AbBs” value in experiment [2] (24 h) was in the range of 0.25 to 0.5 mg/L.

Source of the values: US8377455B2, “Biosurfactant composition produced by a new Bacillus licheniforms strain, uses and products thereof” (priority 2008, dated 2013).
